Reference: US6372793B1, “Method for treatment of a neurological disease characterized by impaired neuromodulator function” (Florida Agricultural & Mechanical University, priority 1999, dated 2002)
Where a name gives a salt, the structure may show the parent alone.

Assays:
rat brain membranes = experiment: SAM-dependent methylation of FC analogs by rat brain membranes; type: biochemical; settings: 60 min; for methylation by rat nerve cell membranes in the presence of [3H-methyl]SAM: 200 mmM analog, 37° C.
Procedure: AFC, FTP and FTS (200 mmM) were each incubated for 60 min with rat brain membranes (240 mmg of protein) at 37° C. in 100 mM Tris-HCl, pH 7.4 containing SAM (10 mmM, 1.3 mmCi [^3H-methyl]-SAM), 5 mM MgSO4 and 0.1 M NaCl in a total incubation volume of 400 mml. The reactions were stopped with 5% TFA and chilled on ice. Hexane (400 mml) was added and the contents of the tubes mixed thoroughly. This was followed by centrifugation at 20,000 g for 2 min. The upper hexane layer was removed and 250 mml analyzed by reversed-phase HPLC on a Whatman column (C18, 4.6×150 mm). Methylated FC analogs were eluted from the column at a rate of 1 ml/min with a 0 to 100% gradient of acetonitrile in 0.1% TFA from the 3rd to the 15th min of each run. This composition was maintained for a further 2 min before re-equilibration of the column for the next sample. Detection was conducted with an online radiochromatographic detection system (INUS β-ram, Tampa, Fla.).

SAM-induced tremors [1] = experiment: Effect of farnesylcysteine/prenylcysteine analogs on SAM-induced tremors and PD-like symptoms; type: in vivo, rat; settings: 20 min
Procedure: (§1) Rats were cannulated for subsequent injections into the lateral ventricle as previously described (Charlton and Mack, 1994). Briefly, each rat was anesthetized with 400 mg/kg of chloral hydrate. A stainless steel guide cannula was stereotaxically placed 1.5 mm lateral and 0.6 mm caudal to the Bregma with the tip extended to the inner surface of the cranium, above the dura mater. At least 2 days following cannulation, injections were made through the cannula into the lateral ventricle with a 26 gauge insertion cannula, pre-measured to descend 5 mm from the surface of the skull into the lateral ventricle. Each injected rat was put in a cage which was then placed on the sensor assembly of the Tremor-Scan Monitor. The recording parameters were set according to the manufacturer's instructions by adjusting the Gain on the instrument to 4 which insured that most of the signals with large or small amplitudes remained within the detection limit or not reduced to the baseline respectively, as viewed on the computer monitoring screen. The noise that could interfere with the SAM-induced tremors is usually of low amplitude and was reduced to baseline levels by this gain setting. This setting was used for all subsequent recording and storage of the vibration signals due to tremor-like activities of the
AFC, FTP and FTS were each suspended in PBS and dissolved by adjusting the pH to 7.4 with NaOH followed by the addition of more PBS to make 0.2 mmol/ml solutions. PBS or each compound, dissolved in 5 mml of solution, was injected into the lateral ventricle of cannulated rats 5 min prior to SAM injections. SAM (1 mmmol in 5 mml of PBS) was injected and the movements recorded over a 20 min period as described above.

rats [2] = experiment: Effect of farnesylcysteine analogs on the movements of rats (Animal Activity Monitor); type: in vivo, rat; settings: 1 mmmol icv alone or in combination with 1 mmmol of SAM
Procedure: Cannulated rats were injected (icv) with AFC or FTP (1 mmmol, 5 mml) in combination with PBS or 1 mmmol of SAM, injected similarly 5 min after injection of the FC analogs. Their movements were measured in an Animal Activity Monitor (AccuScan Electronics, Inc., Columbus, Ohio) and compared to those of control animals that received PBS.

[3] = test system: 6-hydroxydopamine-lesioned rats; experiment: Amphetamine-induced ipsiversive rotation of 6-hydroxydopamine-lesioned rats (RotoScan Rotometer); type: in vivo, rat
SAM-induced tremors [4] = experiment: Effect of L-DOPA, SAH and NADA on SAM-induced tremors; type: in vivo, rat; settings: for number of tremors / total duration of tremors: 20 min; for effect on the SAM-induced PD-like symptoms: icv before SAM
Procedure: as §1
Cannulated rats were injected either with PBS (5 mml), L-DOPA (1.5 mmmol), SAH (1.0 mmmol) or NADA (1.0 mmmol) followed by an injection of either 0.75 or 1.0 mmmol of SAM. Each compound was dissolved or finely suspended in PBS. They were then monitored for tremors on the Tremor Monitor for a period of 20 min.

rat nerve cell membranes = experiment: In vitro association of [3H-methyl]SAM or 3H-MPP+ with rat nerve cell membranes; type: binding; settings: for effect on association of [3H-methyl]SAM radioactivity with membranes: 100 mmM non-radioactive compound in the incubation mixture; for effect on 3H-MPP+ association with membranes: non-radioactive competitor
Procedure: Rat brain (1.76 g) was homogenized in 20 ml of 50 mM Tris-HCl, pH 7.4 containing 2.5 mM EDTA and 0.02% bovine serum albumin and centrifuged at 900×g for 10 min. The supernatant was transferred and the pellet re-suspended in the same buffer and centrifuged. The 900×g supernatants were combined and centrifuged at 20,000×g for 40 min. The supernatant was removed and the pellet resuspended in 5 ml of buffer, aliquoted and frozen at −70° C. until needed.
To understand whether the behavioral effects of SAM were due to interactions with cellular macromecules, [^3H-methyl]SAM (0.2 mmCi) was incubated with rat nerve cell membranes (30 mmg of protein) at 37° C. At the appropriate incubation periods, the reaction tubes were removed and centrifuged (13,000 rpm, MSE Centaur) for 10 min. The supernatant was discarded and the pellet suspended in scintillation fluid and their total radioactive content determined by scintillation counting.

rats [5] = experiment: Tremors and PD-like symptoms induced by icv SAM, recorded on the Tremor-Scan Monitor; type: in vivo, rat
Procedure: as §1
The Tremor Monitor software, which allows for the determination of 1) the signal amplitude, 2) the number of cycles in each activity or episode, 3) the number of activities and 4) the duration of each activity or episode, aided in the storage and subsequent retrieval and analysis of the recorded activity profiles. Analysis of the stored data was achieved by altering the minimum and maximum frequency, amplitude and number of cycles to reflect the unique properties of each kind of movement and thus delineate the SAM-induced tremors from non-tremor activity signals.
The dose-dependent effects of SAM was also determined in cannulated rats injected with 0 (PBS), 0.5, 0.75 and 1.0 mmmol of SAM. Their tremor activities were recorded on the Tremor-Scan monitor for 20 min.
To determine the duration and magnitude of SAM-induced tremors, groups of cannulated rats were injected either with 1 mmmol of SAM or with 5 mml of PBS, as control. The animals were monitored on the Tremor-Scan Monitor for a duration of 2 h starting immediately after the injections.

[6] = 1 mmmol FC analog icv 5 min before 1 mmmol SAM
[7] = 1.5 mmmol L-DOPA icv before 0.75 mmmol SAM, or SAM alone
[8] = 1 mmmol NADA or SAH icv followed by 1 mmmol SAM, or SAM alone
[9] = 1 mmmol SAM icv, first 10 min interval of 2 h recording
[10] = 20 min, re-analysis with minimum amplitude 20 and minimum cycles per activity 20
[11] = SAM icv, 20 min recording, frequency window 8 to 20, minimum amplitude 10, minimum 10 cycles
[12] = raw data, 20 min monitoring, minimum amplitude 10, minimum cycles 10
[13] = 0 mmmol FC analog followed by 1 mmmol SAM

Compound: CC(=O)N[C@@H](CSC/C=C(\C)CC/C=C(\C)CCC=C(C)C)C(=O)O [AFC, N-acetyl-S-farnesyl-L-cysteine]
- methylation by rat nerve cell membranes in the presence of [3H-methyl]SAM (rat brain membranes): avid methyl acceptors
- tremors observed (SAM-induced tremors [1]; 0.5 mmmol FC analog icv 5 min before 1 mmmol SAM): significant reduction of tremors
- tremors observed (SAM-induced tremors [1]; [6]): no tremors
- movement activity (rats [2]): significantly higher degree of movement activity
- net rotations ([3]; AFC alone, no amphetamine): only few net rotations
- increase of amphetamine-induced rotation ([3]; amphetamine ip plus AFC 1 mmmol icv, versus amphetamine alone): 2 fold
- ipsiversive rotations within 90 min ([3]; amphetamine ip plus AFC 1 mmmol into the left lateral ventricle): 830±110
- ipsiversive rotations within 90 min ([3]; amphetamine ip plus AFC 1 mmmol into the right lateral ventricle): 790±160

Compound: CC(C)=CCCC(C)=CCCC(C)=CCSc1ccccc1C(=O)O [FTS, farnesylthiosalicylic acid]
- methylation by rat nerve cell membranes in the presence of [3H-methyl]SAM (rat brain membranes): never methylated
- inhibition of the methylation of AFC and FTP (rat brain membranes; indicated concentrations of FTS): dose-dependently inhibited
- tremors observed (SAM-induced tremors [1]; [6]): significantly fewer tremors

Compound: N[C@@H](Cc1ccc(O)c(O)c1)C(=O)O [L-DOPA, L-dihydroxyphenylalanine]
- number of tremors (SAM-induced tremors [4]; [7]): 25±4
- total duration of tremors (SAM-induced tremors [4]; [7]): 111 ± 22 s
- effect on the SAM-induced PD-like symptoms (SAM-induced tremors [4]): little or no effect

Compound: C[n+]1ccc(-c2ccccc2)cc1 [MPP^+, 1-methyl-4-phenylpyridinium ion]
- effect on association of [3H-methyl]SAM radioactivity with membranes (rat nerve cell membranes): No effect

Compound: CC(=O)NCCc1ccc(O)c(O)c1 [NADA, N-acetyldopamine]
- total duration of tremors (SAM-induced tremors [4]; [8]): 200±43
- effect on the SAM-induced PD-like symptoms (SAM-induced tremors [4]): little or no effect

Compound: Nc1ncnc2c1ncn2[C@@H]1O[C@H](CSCC[C@H](N)C(=O)O)[C@@H](O)[C@H]1O [SAH, S-adenosyl-L-homocysteine]
- total duration of tremors (SAM-induced tremors [4]; [8]): 212±52
- effect on the SAM-induced PD-like symptoms (SAM-induced tremors [4]): little or no effect
- radioactivity associated with the membranes in presence of competitor (rat nerve cell membranes; [3H-methyl]SAM, 100 mmM competitor in the incubation mixture): about 2000 DPM
- effect on 3H-MPP+ association with membranes (rat nerve cell membranes): little affected

Compound: C[S+](CC[C@H](N)C(=O)O)C[C@H]1O[C@@H](n2cnc3c(N)ncnc32)[C@H](O)[C@@H]1O (stereo partly drawn) [SAM, S-Adenosyl-L-methionine]
- number of tremors (rats [5]; 0.5 mmmol SAM icv, 20 min): minimal
- total duration of tremors (rats [5]; 0.5 mmmol SAM icv, 20 min): minimal
- increase in number of tremors (rats [5]; 0.75 mmmol SAM icv, 20 min): 7 fold
- increase in total duration of tremors compared to the 0.5 mmmol injection (rats [5]; 0.75 mmmol SAM icv, 20 min): 9 fold
- rate of tremor episodes during the first 10 min (rats [5]; 1 mmmol SAM icv): about 2 episodes per min
- time that abnormal posture, hypokinesia and rigidity remained (rats [5]; 1 mmmol SAM icv): about 90 min
- increase in number of tremors (rats [5]; 1 mmmol SAM icv, 20 min): 8 fold
- increase in total duration of tremors compared to the 0.5 mmmol injection (rats [5]; 1 mmmol SAM icv, 20 min): 12 fold
- number of tremors in the first 10 min interval (rats [5]; [9]): 19±4
- total duration of tremors within the first 10 min (rats [5]; [9]): 120 ± 20 s
- number of tremor activities (rats [5]; [10]): 70±8
- total duration of tremor activity (rats [5]; [10]): 360 ± 18 s
- average amplitude (rats [5]; [11]): 42.3±5
- frequency (rats [5]; [11]): 12±0.1
- number of cycles (waves) per activity (rats [5]; [11]): 54±6
- time to onset of tremors, hypokinesia, rigidity and abnormal posture after injection (rats [5]; SAM into the lateral ventricle): 0.5 to 2 min
- number of activities (rats [5]; [12]): 92±12
- total duration of tremors (rats [5]; [12]): 470 ± 50 s
- total duration of tremors (SAM-induced tremors [4]; [8]): 273±128
- number of tremors (SAM-induced tremors [4]; [7]): 33±7
- total duration of tremors (SAM-induced tremors [4]; [7]): 170 ± 34 s
- change of membrane-associated radioactivity after addition of non-radioactive compound (reversibility) (rat nerve cell membranes; 100 mmM non-radioactive SAM added after 2 h incubation with [3H-methyl]SAM): neither increased nor decreased
- effect on association of [3H-methyl]SAM radioactivity with membranes (rat nerve cell membranes): inhibited
- effect on 3H-MPP+ association with membranes (rat nerve cell membranes): little affected
- duration of tremors (SAM-induced tremors [1]; [13]): 310 ± 70 s
- number of tremors (SAM-induced tremors [1]; [13]): 46±10

Compound: C[S+](CC[C@H](N)C(=O)[O-])C[C@H]1O[C@@H](n2cnc3c(N)ncnc32)[C@H](O)[C@@H]1O (stereo partly drawn) [[^3H-methyl]SAM, S-[methyl-^3H]-SAM]
- radioactivity associated with the membranes (rat nerve cell membranes; [3H-methyl]SAM incubated with rat nerve cell membrane preparation, no competitor): about 6000 DPM

Compound: C[C@H](N)Cc1ccccc1 [amphetamine, d-amphetamine sulfate]
- ipsiversive rotations within 90 min ([3]; amphetamine ip (5 mg/kg) alone, 7 days after intrastriatal 6-OHDA): 390±130
